Assay results taken from US11161825B2, “4-oxo-2,3,4,5-tetrahydro-1H-1,5-benzodiazepine-7-carboxamides” (Bayer Aktiengesellschaft, priority 2017, dated 2021).

How the values were obtained:
SMYD3 = target: T1, SMYD3 (Homo sapiens, UniProt Q9H7B4); test: SMYD3 Scintillation Proximity Assay (SPA), methylation of MAP3K2 Peptide; type: biochemical; details: SMYD3 full length enzyme 10 nM, 3H-SAM 125 nM, MAP3K2 Peptide 1 μM, 120 min at 22° C.
T1 construct: The SMYD3 full length enzyme was produced in-house by expression (with an N-terminal 6×His tag) in E. coli; 6xHis (N); made in house; host or cells: E. coli
T1 sequence (Q9H7B4 1-428): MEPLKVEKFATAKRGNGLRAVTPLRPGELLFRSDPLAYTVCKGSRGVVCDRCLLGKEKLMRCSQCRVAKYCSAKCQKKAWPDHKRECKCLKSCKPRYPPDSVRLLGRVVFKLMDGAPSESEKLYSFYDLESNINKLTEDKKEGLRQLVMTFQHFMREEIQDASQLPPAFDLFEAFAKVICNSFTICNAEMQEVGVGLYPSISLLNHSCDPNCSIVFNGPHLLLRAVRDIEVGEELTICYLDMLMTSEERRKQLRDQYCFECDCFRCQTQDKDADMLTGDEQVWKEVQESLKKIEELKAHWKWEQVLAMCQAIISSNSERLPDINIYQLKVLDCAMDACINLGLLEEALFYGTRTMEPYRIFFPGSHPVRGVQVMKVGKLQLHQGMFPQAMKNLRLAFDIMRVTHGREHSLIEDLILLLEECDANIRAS
Description: SMYD3 Scintillation Proximity Assay (SPA)
The SMYD3 full length enzyme was produced in-house by expression (with an N-terminal 6×His tag) in E. coli and purification by affinity chromatography on a Ni-NTA Sepharose column followed by a size exclusion chromatography step on a Superdex 200 16/60 column (GE Healthcare).
To this end, 100-fold concentrated compound solutions (in DMSO) were previously prepared by serial dilution (1:3.4) of 2 mM stocks in a clear low volume 384-well source microtiter plate (Greiner Bio-One), from which 100 nl of compounds were transferred into a white low volume test microtiter plate from the same supplier. […] The resulting mixture (5 μl final volume) was shortly centrifuged (2 min., 1500 rpm) and incubated at 22° C. during 120 min. […] Plates containing the stopped reaction were sealed with transparent adhesive foil (Perkin Elmer), centrifuged (2 min., 1500 rpm), and further incubated overnight at 4° C. in order to allow the SPA signals to develop. Subsequently, the amount of product was evaluated by measuring the energy transfer from the […] emitted by the 3H-labeled substrate to the scintillator co-polymerized in the bead's matrix, using a TopCount NXT scintillation counter (Packard) with the standard instrument settings for this purpose. The resulting scintillation counts were taken as indicator for the amount of methylated peptide per well. […] IC50 values were calculated by fitting the normalized inhibition data to a 4-parameter logistic equation using the XLFit analysis software (IDBS).

[1] = target: T2, untagged full length SMYD3 (Homo sapiens, UniProt Q9H7B4); test: Thermal Shift Assay; type: binding; details: protein 1.5-2.0 μM, 5× SYPRO Orange, scans 25° C. to 80° C.; control 4% DMSO
T2 construct: As protein untagged full length SMYD3 was used
T2 sequence (Q9H7B4 1-428): T1 sequence (Q9H7B4 1-428)
Description: Thermal Shift Assay Thermal melting experiments were performed with a ViiA™ Real-Time PCR machine (Thermo Fisher Scientific) in 384-well microliter plate with a final volume of 5 μL. Melting curves were obtained at a protein concentration of 1.5-2.0 μM and 5× SYPRO Orange (Invitrogen) using buffer containing 20 mM Tris pH7.0; 150 mM NaCl; 1.0 mM DTT. As protein untagged full length SMYD3 was used. […] As control 4% DMSO was used. Scans were measured from 25° C. to 80° C. at a scanning rate of 0.1° C./sec. All TSA data were analyzed by using Genedata Assay Analyzer.

Row | IC50 (SMYD3) | Thermal shift assay (° C.) [1] | SMILES
1 | 1.26 µM | 5.21 °C | CC1C(=O)Nc2cc(C(=O)NCCC3CC3)ccc2N(C(=O)c2ccccc2)C1C (mixture of isomers) [Example 2, 1-benzoyl-N-(2-cyclopropylethyl)-2,3-dimethyl-4-oxo-2,3,4,5-tetrahydro-1H-1,5-benzodiazepine-7-carboxamide]
2 | 1.23 µM | 4.38 °C | CC1C(=O)Nc2cc(C(=O)NCCC3CCC3)ccc2N(C(=O)c2ccccc2)C1C (mixture of isomers) [Example 4, 1-benzoyl-N-(2-cyclobutylethyl)-2,3-dimethyl-4-oxo-2,3,4,5-tetrahydro-1H-1,5-benzodiazepine-7-carboxamide]
3 | 0.0372 µM | 10.30 °C | CC1C(=O)Nc2cc(C(=O)NCCC3CC3)ccc2N(C(=O)N2CCC(N)CC2)C1C (mixture of isomers) [Example 19, 1-[(4-aminopiperidin-1-yl)carbonyl]-N-(2-cyclopropylethyl)-2,3-dimethyl-4-oxo-2,3,4,5-tetrahydro-1H-1,5-benzodiazepine-7-carboxamide]
4 | 1.66 µM | 5.27 °C | CC1CC(=O)Nc2cc(C(=O)NCCC3CC3)ccc2N1C(=O)c1ccccc1 (racemic) [Example 1, 1-benzoyl-N-(2-cyclopropylethyl)-2-methyl-4-oxo-2,3,4,5-tetrahydro-1H-1,5-benzodiazepine-7-carboxamide]
5 | 1.63 µM | 4.56 °C | CC1CC(=O)Nc2cc(C(=O)NCCC3CCC3)ccc2N1C(=O)c1ccccc1 (racemic) [Example 3, 1-benzoyl-N-(2-cyclobutylethyl)-2-methyl-4-oxo-2,3,4,5-tetrahydro-1H-1,5-benzodiazepine-7-carboxamide]
6 | > 20 µM | 2.90 °C | Cc1nocc1C(=O)N1c2ccc(C(=O)NCCC3CC3)cc2NC(=O)CC1C (racemic) [Example 5, N-(2-cyclopropylethyl)-2-methyl-1-[(3-methyl-1,2-oxazol-4-yl)carbonyl]-4-oxo-2,3,4,5-tetrahydro-1H-1,5-benzodiazepine-7-carboxamide]
7 | 12.8 µM | 2.83 °C | Cc1nocc1C(=O)N1c2ccc(C(=O)NCCC3CCC3)cc2NC(=O)CC1C (racemic) [Example 6, N-(2-cyclobutylethyl)-2-methyl-1-[(3-methyl-1,2-oxazol-4-yl)carbonyl]-4-oxo-2,3,4,5-tetrahydro-1H-1,5-benzodiazepine-7-carboxamide]
8 | 38.7 µM | 2.02 °C | CCCCCNC(=O)c1ccc2c(c1)NC(=O)CC(C)N2C(=O)c1ccccc1F (racemic) [Example 46, 1-(2-fluorobenzoyl)-2-methyl-4-oxo-N-pentyl-2,3,4,5-tetrahydro-1H-1,5-benzodiazepine-7-carboxamide]
9 | 22.1 µM | 1.68 °C | CCCCCNC(=O)c1ccc2c(c1)NC(=O)CC(C)N2C(=O)c1ccc(C)cc1 (racemic) [Example 47, 2-methyl-1-(4-methylbenzoyl)-4-oxo-N-pentyl-2,3,4,5-tetrahydro-1H-1,5-benzodiazepine-7-carboxamide]
10 | 26.7 µM | 1.60 °C | CCCCCNC(=O)c1ccc2c(c1)NC(=O)CC(C)N2C(=O)C1CCCC1 (racemic) [Example 48, 1-(cyclopentylcarbonyl)-2-methyl-4-oxo-N-pentyl-2,3,4,5-tetrahydro-1H-1,5-benzodiazepine-7-carboxamide]
11 | – | 1.43 °C | CCCNC(=O)c1ccc2c(c1)NC(=O)CC(C)N2C(=O)c1cccs1 (racemic) [Example 49, 2-methyl-4-oxo-N-propyl-1-(2-thienylcarbonyl)-2,3,4,5-tetrahydro-1H-1,5-benzodiazepine-7-carboxamide]
12 | 35 µM | – | CCCCNC(=O)c1ccc2c(c1)NC(=O)CC(C)N2C(=O)C1CC1 (racemic) [Example 50, N-butyl-1-(cyclopropylcarbonyl)-2-methyl-4-oxo-2,3,4,5-tetrahydro-1H-1,5-benzodiazepine-7-carboxamide]
13 | 24.4 µM | 1.83 °C | CCCCNC(=O)c1ccc2c(c1)NC(=O)CC(C)N2C(=O)CCC1CCCC1 (racemic) [Example 51, N-butyl-1-(3-cyclopentylpropanoyl)-2-methyl-4-oxo-2,3,4,5-tetrahydro-1H-1,5-benzodiazepine-7-carboxamide]
14 | 18.3 µM | 1.16 °C | CCCCNC(=O)c1ccc2c(c1)NC(=O)CC(C)N2C(=O)c1cccc(F)c1 (racemic) [Example 52, N-butyl-1-(3-fluorobenzoyl)-2-methyl-4-oxo-2,3,4,5-tetrahydro-1H-1,5-benzodiazepine-7-carboxamide]
15 | 12.3 µM | 2.53 °C | CCCCNC(=O)c1ccc2c(c1)NC(=O)CC(C)N2C(=O)c1ccccc1F (racemic) [Example 53, N-butyl-1-(2-fluorobenzoyl)-2-methyl-4-oxo-2,3,4,5-tetrahydro-1H-1,5-benzodiazepine-7-carboxamide]
16 | 4.9 µM | 3.77 °C | Cc1nocc1C(=O)N1c2ccc(C(=O)NCCC3CC3)cc2NC(=O)C(C)C1C (single isomer, unassigned) [Example 8, N-(2-cyclopropylethyl)-2,3-dimethyl-1-[(3-methyl-1,2-oxazol-4-yl)carbonyl]-4-oxo-2,3,4,5-tetrahydro-1H-1,5-benzodiazepine-7-carboxamide]
17 | > 20 µM | 1.82 °C | Cc1nocc1C(=O)N1c2ccc(C(=O)NCCC3CC3)cc2NC(=O)C(C)C1C (single isomer, unassigned) [Example 9, N-(2-cyclopropylethyl)-2,3-dimethyl-1-[(3-methyl-1,2-oxazol-4-yl)carbonyl]-4-oxo-2,3,4,5-tetrahydro-1H-1,5-benzodiazepine-7-carboxamide]
18 | > 20 µM | 1.29 °C | Cc1nocc1C(=O)N1c2ccc(C(=O)NCCC3CC3)cc2NC(=O)C(C)C1C (single isomer, unassigned) [Example 10, N-(2-cyclopropylethyl)-2,3-dimethyl-1-[(3-methyl-1,2-oxazol-4-yl)carbonyl]-4-oxo-2,3,4,5-tetrahydro-1H-1,5-benzodiazepine-7-carboxamide]
19 | 12.9 µM | 3.50 °C | Cc1nocc1C(=O)N1c2ccc(C(=O)NCCC3CC3)cc2NC(=O)C(C)C1C (single isomer, unassigned) [Example 11, N-(2-cyclopropylethyl)-2,3-dimethyl-1-[(3-methyl-1,2-oxazol-4-yl)carbonyl]-4-oxo-2,3,4,5-tetrahydro-1H-1,5-benzodiazepine-7-carboxamide]
20 | 2.53 µM | – | C[C@H]1CC(=O)Nc2cc(C(=O)N(C)CCC3CC3)ccc2N1C(=O)N1CC2CC2C1 (stereo partly drawn) [Example 54, (2S)-1-(3-azabicyclo[3.1.0]hexane-3-carbonyl)-N-(2-cyclopropylethyl)-N,2-dimethyl-4-oxo-2,3,4,5-tetrahydro-1H-1,5-benzodiazepine-7-carboxamide]
21 | 2.64 µM | – | C[C@@H]1CC(=O)Nc2cc(C(=O)NCCC3CC3)ccc2N1C(=O)N1CC2CC2C1 (stereo partly drawn) [Example 55, (2R)-1-(3-azabicyclo[3.1.0]hexane-3-carbonyl)-N-(2-cyclopropylethyl)-2-methyl-4-oxo-2,3,4,5-tetrahydro-1H-1,5-benzodiazepine-7-carboxamide]
22 | > 30 µM | – | C[C@@H]1CC(=O)Nc2cc(C(=O)N(C)CCC3CC3)ccc2N1C(=O)N1CC2CC2C1 (stereo partly drawn) [Example 56, (2R)-1-(3-azabicyclo[3.1.0]hexane-3-carbonyl)-N-(2-cyclopropylethyl)-N,2-dimethyl-4-oxo-2,3,4,5-tetrahydro-1H-1,5-benzodiazepine-7-carboxamide]
